# Like-named read-outs stand apart in the source and are kept apart here.
# Assays:
# Assay type in all cases: binding
# [1] = biological target: CDK1/Cyclin E1 (Homo sapiens, UniProt P06493); assay: NanoBRET live-cell target engagement, CDK1-NanoLuc/Cyclin E1 in HEK-293; settings: CDK1/E1, read-out: Inhibition at 10µM (%)
# [2] = biological target: CDK2/Cyclin E1 (Homo sapiens, UniProt P24941); assay: NanoBRET live-cell target engagement, CDK2-NanoLuc/Cyclin E1 in HEK-293; settings: for inhibition at 10 µM: CDK2/E1, read-out: Inhibition at 10µM (%)
# [3] = biological target: CDK3/Cyclin E1 (Homo sapiens, UniProt Q00526); assay: NanoBRET live-cell target engagement, CDK3-NanoLuc/Cyclin E1 in HEK-293; settings: CDK3/E1, read-out: Inhibition at 10µM (%)
# [4] = biological target: CDK4/Cyclin D1 (Homo sapiens, UniProt P11802); assay: NanoBRET live-cell target engagement, NanoLuc-CDK4/Cyclin D1 in HEK-293; settings: CDK4/D1, read-out: Inhibition at 10µM (%)
# [5] = biological target: CDK5/CDK5R1 (Homo sapiens, UniProt Q00535); assay: NanoBRET live-cell target engagement, CDK5-NanoLuc/CDK5R1 in HEK-293; settings: CDK5/CDK5R1, read-out: Inhibition at 10µM (%)
# [6] = biological target: CDK6/Cyclin D1 (Homo sapiens, UniProt Q00534); assay: NanoBRET live-cell target engagement, NanoLuc-CDK6/Cyclin D1 in HEK-293; settings: CDK6/D1, read-out: Inhibition at 10µM (%)
# [7] = biological target: CDK7 (Homo sapiens, UniProt P50613); assay: NanoBRET live-cell target engagement, NanoLuc-CDK7 in HEK-293; settings: CDK7, read-out: Inhibition at 10µM (%)
# [8] = biological target: CDK8/Cyclin C (Homo sapiens, UniProt P49336); assay: NanoBRET live-cell target engagement, NanoLuc-CDK8/Cyclin C in HEK-293; settings: for IC50: CDK8/C
# [9] = LOG10([CCT251545 analog]) (LOG10(µM)) 0.045757
# [10] = LOG10([CCT251545 analog]) (LOG10(µM)) 0.522879
# [11] = LOG10([CCT251545 analog]) (LOG10(µM)) 1
# [12] = LOG10([CCT251545 analog]) (LOG10(µM)) -0.43136
# [13] = LOG10([CCT251545 analog]) (LOG10(µM)) -0.90849
# [14] = LOG10([CCT251545 analog]) (LOG10(µM)) -1.38561
# [15] = LOG10([CCT251545 analog]) (LOG10(µM)) -1.86273
# [16] = LOG10([CCT251545 analog]) (LOG10(µM)) -2.33985
# [17] = LOG10([CCT251545 analog]) (LOG10(µM)) -2.81697
# [18] = LOG10([CCT251545 analog]) (LOG10(µM)) -3.29409
# [19] = LOG10([CCT251545 analog]) (LOG10(µM)) -3.77121
# Chain of CDK6/Cyclin D1 (Q00534 whole entry): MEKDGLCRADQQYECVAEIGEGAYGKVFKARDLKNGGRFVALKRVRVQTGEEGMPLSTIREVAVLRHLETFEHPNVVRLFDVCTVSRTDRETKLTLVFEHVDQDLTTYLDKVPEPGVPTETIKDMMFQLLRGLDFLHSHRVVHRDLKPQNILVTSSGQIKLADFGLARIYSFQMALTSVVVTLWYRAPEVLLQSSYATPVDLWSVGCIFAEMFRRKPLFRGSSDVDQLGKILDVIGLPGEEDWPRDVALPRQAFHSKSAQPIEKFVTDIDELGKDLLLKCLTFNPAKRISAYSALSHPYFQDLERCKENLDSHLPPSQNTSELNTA
# Chain of CDK6/Cyclin D1 (P24385 whole entry partner): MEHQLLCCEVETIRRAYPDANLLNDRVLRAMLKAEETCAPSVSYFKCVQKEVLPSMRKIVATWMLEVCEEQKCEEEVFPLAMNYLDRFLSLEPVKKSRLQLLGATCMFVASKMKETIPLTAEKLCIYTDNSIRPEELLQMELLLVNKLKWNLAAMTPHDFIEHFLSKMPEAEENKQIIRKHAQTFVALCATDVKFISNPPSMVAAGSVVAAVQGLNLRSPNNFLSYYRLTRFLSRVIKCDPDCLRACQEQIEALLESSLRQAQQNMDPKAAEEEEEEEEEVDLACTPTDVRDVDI
# Chain of CDK8/Cyclin C (P49336 whole entry): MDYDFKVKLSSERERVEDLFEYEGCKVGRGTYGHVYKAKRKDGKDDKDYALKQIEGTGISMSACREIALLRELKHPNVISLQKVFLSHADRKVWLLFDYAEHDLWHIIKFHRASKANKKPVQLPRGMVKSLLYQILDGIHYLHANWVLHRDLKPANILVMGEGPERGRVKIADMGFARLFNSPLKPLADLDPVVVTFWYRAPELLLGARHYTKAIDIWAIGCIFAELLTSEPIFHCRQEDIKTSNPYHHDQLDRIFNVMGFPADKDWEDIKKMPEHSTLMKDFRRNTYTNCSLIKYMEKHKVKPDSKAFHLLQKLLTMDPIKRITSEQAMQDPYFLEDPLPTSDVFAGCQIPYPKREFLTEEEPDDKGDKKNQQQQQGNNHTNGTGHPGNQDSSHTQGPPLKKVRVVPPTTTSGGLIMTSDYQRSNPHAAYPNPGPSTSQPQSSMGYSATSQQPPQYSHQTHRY
# Chain of CDK8/Cyclin C (P24863 whole entry partner): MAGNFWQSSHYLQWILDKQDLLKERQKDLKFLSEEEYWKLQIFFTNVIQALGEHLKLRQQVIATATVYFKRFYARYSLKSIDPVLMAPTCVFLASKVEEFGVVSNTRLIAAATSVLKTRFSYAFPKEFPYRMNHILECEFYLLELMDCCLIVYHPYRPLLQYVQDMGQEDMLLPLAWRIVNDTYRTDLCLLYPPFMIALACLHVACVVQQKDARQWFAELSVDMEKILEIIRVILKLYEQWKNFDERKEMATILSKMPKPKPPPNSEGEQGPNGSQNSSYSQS
# Chain of CDK1/Cyclin E1 (P06493 whole entry): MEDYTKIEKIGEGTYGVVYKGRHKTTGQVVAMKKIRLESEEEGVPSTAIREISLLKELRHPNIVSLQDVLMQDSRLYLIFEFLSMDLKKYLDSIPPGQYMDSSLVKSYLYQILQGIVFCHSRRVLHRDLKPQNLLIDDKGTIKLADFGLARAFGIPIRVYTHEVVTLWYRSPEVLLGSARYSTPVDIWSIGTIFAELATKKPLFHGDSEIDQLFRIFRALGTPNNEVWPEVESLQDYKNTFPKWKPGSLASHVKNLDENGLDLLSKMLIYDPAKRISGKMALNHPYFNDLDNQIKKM
# Chain of CDK1/Cyclin E1 (P24864 whole entry partner): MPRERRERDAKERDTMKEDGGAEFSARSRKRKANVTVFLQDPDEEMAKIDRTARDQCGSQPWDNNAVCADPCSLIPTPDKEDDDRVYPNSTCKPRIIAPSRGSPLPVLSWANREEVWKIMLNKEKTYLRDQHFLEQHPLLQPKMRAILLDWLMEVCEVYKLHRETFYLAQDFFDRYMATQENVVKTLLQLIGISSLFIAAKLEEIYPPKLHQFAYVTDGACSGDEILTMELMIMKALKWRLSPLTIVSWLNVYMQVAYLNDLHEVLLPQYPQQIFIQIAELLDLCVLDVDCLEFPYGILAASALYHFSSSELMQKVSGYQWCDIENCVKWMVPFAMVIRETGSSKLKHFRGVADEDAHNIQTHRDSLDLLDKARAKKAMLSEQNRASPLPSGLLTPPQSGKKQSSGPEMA
# Chain of CDK3/Cyclin E1 (Q00526 whole entry): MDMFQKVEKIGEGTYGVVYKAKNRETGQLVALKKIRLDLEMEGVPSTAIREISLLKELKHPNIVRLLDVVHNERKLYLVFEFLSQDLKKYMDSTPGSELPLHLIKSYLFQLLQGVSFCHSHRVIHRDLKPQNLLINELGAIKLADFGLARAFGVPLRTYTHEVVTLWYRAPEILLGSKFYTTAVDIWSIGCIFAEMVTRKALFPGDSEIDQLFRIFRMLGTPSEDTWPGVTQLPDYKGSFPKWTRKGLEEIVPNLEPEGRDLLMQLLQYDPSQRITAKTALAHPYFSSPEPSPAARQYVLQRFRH
# Chain of CDK3/Cyclin E1 (P24864 whole entry partner): as the sequence (P24864 whole entry partner) above
# Chain of CDK5/CDK5R1 (Q00535 whole entry): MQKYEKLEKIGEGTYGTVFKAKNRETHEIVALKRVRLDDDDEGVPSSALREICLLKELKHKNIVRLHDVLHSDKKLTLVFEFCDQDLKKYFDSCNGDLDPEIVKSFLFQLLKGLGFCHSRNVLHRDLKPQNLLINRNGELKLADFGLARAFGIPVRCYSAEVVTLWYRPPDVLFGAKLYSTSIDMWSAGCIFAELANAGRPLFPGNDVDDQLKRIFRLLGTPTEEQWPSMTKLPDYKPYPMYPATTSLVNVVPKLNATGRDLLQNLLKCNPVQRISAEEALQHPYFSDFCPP
# Chain of CDK5/CDK5R1 (Q15078 whole entry partner): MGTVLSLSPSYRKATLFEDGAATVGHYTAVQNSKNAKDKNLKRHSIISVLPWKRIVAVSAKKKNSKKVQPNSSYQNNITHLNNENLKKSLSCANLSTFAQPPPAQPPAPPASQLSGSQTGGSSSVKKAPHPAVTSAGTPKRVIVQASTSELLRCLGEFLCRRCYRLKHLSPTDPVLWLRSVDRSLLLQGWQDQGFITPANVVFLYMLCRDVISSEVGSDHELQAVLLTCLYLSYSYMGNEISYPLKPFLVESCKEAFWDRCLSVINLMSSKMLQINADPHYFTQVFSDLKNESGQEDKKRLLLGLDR
# Chain of CDK4/Cyclin D1 (P11802 whole entry): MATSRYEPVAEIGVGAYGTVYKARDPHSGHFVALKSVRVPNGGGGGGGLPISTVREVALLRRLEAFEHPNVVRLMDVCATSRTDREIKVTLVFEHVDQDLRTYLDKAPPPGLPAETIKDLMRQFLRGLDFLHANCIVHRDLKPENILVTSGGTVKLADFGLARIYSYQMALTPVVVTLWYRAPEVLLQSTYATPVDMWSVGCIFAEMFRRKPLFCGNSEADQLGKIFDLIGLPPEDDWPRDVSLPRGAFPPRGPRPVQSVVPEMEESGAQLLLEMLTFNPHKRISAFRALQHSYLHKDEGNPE
# Chain of CDK4/Cyclin D1 (P24385 whole entry partner): as the sequence (P24385 whole entry partner) above
# Chain of CDK7 (P50613 whole entry): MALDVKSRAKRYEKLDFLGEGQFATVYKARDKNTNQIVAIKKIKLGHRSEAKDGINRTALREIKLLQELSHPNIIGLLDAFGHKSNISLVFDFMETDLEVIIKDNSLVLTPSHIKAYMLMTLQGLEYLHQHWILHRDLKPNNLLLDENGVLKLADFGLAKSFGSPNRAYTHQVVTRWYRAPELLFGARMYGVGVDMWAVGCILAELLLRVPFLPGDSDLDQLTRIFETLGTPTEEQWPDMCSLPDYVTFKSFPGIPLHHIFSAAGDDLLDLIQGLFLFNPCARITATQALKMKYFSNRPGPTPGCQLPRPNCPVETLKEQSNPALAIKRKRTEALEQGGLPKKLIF
smiles,measurement,setting,value
COC1CN(C(=O)c2ccc3c(N)ncc(-c4ccc(-c5cnn(C)c5)cc4)c3n2)C1 [CCT251545 analog],inhibition at 10 µM,[1]; average,16.7%
same,inhibition at 10 µM,[1]; experiment 1,19.7%
same,inhibition at 10 µM,[1]; experiment 2,13.7%
same,inhibition at 10 µM,[2]; average,-18.6%
same,inhibition at 10 µM,[2]; experiment 1,-37.1%
same,inhibition at 10 µM,[2]; experiment 2,-0.0714%
same,CDK2 Occupancy (%),[2]; [9],0.4583%
same,CDK2 Occupancy (%),[2]; [10],13.0609%
same,CDK2 Occupancy (%),[2]; [11],32.3087%
same,CDK2 Occupancy (%),[2]; [12],6.187%
same,CDK2 Occupancy (%),[2]; [13],0%
same,CDK2 Occupancy (%),[2]; [14],0.6874%
same,CDK2 Occupancy (%),[2]; [15],13.5192%
same,CDK2 Occupancy (%),[2]; [16],9.853%
same,CDK2 Occupancy (%),[2]; [17],9.166%
same,CDK2 Occupancy (%),[2]; [18],4.812%
same,CDK2 Occupancy (%),[2]; [19],2.291%
same,inhibition at 10 µM,[3]; average,0.5%
same,inhibition at 10 µM,[3]; experiment 1,3.3%
same,inhibition at 10 µM,[3]; experiment 2,-2.3%
same,inhibition at 10 µM,[4]; average,12.4%
same,inhibition at 10 µM,[4]; experiment 1,11.6%
same,inhibition at 10 µM,[4]; experiment 2,13.1%
same,inhibition at 10 µM,[5]; average,16.2%
same,inhibition at 10 µM,[5]; experiment 1,17.8%
same,inhibition at 10 µM,[5]; experiment 2,14.5%
same,inhibition at 10 µM,[6]; average,17.9%
same,inhibition at 10 µM,[6]; experiment 1,15.1%
same,inhibition at 10 µM,[6]; experiment 2,20.8%
same,inhibition at 10 µM,[7]; average,9.4%
same,inhibition at 10 µM,[7]; experiment 1,11.5%
same,inhibition at 10 µM,[7]; experiment 2,7.3%
same,IC50,"[8]; IC50 (nM), experiment 1",2.6 nM
same,IC50,"[8]; IC50 (nM), experiment 2",2 nM
same,IC50,"[8]; IC50 (nM), experiment 3",12 nM
same,IC50,"[8]; IC50 for CDK/cyclin complexes, live HEK-293, 2 h, mean ± S.E.M. (n=3) or mean (n=2)",6 nM
same,CDK8 Occupancy (%),[8]; [9],92.3464%
same,CDK8 Occupancy (%),[8]; [10],91.9478%
same,CDK8 Occupancy (%),[8]; [11],84.2411%
same,CDK8 Occupancy (%),[8]; [12],91.0176%
same,CDK8 Occupancy (%),[8]; [13],91.5491%
same,CDK8 Occupancy (%),[8]; [14],90.619%
same,CDK8 Occupancy (%),[8]; [15],85.7027%
same,CDK8 Occupancy (%),[8]; [16],65.2404%
same,CDK8 Occupancy (%),[8]; [17],51.023%
same,CDK8 Occupancy (%),[8]; [18],25.2458%
same,CDK8 Occupancy (%),[8]; [19],19.9309%
same,inhibition at 10 µM,"[8]; read-out: Inhibition at 10µM (%), CDK8/C, average",96%

# From paper PMC7265341, “Quantifying CDK inhibitor selectivity in live cells” (Nature Communications, 2020)
